From the OligoGym collection
Several values for one entry are separate records, joined by “and”; a condition that tells them apart may be missing. Equal values may be shown once. After the bases stand the sugars from the 5' end (letter, count) and the backbone: PS all phosphorothioate, else s phosphorothioate and o phosphodiester by linkage. Methylation of C is not given here. e = 2'-O-(2-methoxyethyl) (MOE); k = constrained ethyl (cEt); d = 2'-deoxy (DNA)

Target: IRF4
Details: ASO

Row | Sequence | target mRNA inhibition (MM.1R, 1 µM) | target mRNA inhibition (SK-MEL-28, 4 µM) | further results
1 | GTGATGTCAGGTTTTC (sugars kkkddddddddkekek, PS) | 57% | – | target mRNA inhibition (MM.1R, 0.074 µM): 14%; target mRNA inhibition (MM.1R, 0.222 µM): 35%; target mRNA inhibition (MM.1R, 0.666 µM): 54%; target mRNA inhibition (MM.1R, 2 µM): 77%
2 | GTGCAAGATGACTCCA (sugars k3 d10 k3, PS) | – | 56% | –
3 | GTGCAGGAGAGGCTGA (sugars k3 d10 k3, PS) | – | 32% | –
4 | GTGTCTAAAGTCCCAT (sugars kkddddddddddkeke, PS) | 9% and 6% | – | –
5 | GTGTGATTAATTCTCC (sugars k3 d10 k3, PS) | 64% and 44% | – | target mRNA inhibition (MM.1R, 0.0625 µM): -15%; target mRNA inhibition (MM.1R, 0.25 µM): 8%; target mRNA inhibition (MM.1R, 4 µM): 87%
6 | GTGTGCTTGCCAAGCC (sugars k2 d9 e3 k2, PS) | 75% and 62% | – | –
7 | GTGTGCTTGCCAAGCC (sugars kkdddddddddekeke, PS) | 17% and 19% | – | –
8 | GTTATCTATGGAAACC (sugars k3 d10 k3, PS) | – | 42% | –
9 | GTTCAAGTATTAAGAT (sugars k3 d10 k3, PS) | – | 29% | –
10 | GTTCCTTTTCAGAGTC (sugars k3 d10 k3, PS) | – | 72% | target mRNA inhibition (SK-MEL-28, 0.185 µM): 16% and 4% and 3%
11 | GTTCGCTGAATTGTCA (sugars k3 d10 k3, PS) | – | 37% | –
12 | GTTCTAGTCGCGCAAG (sugars k3 d10 k3, PS) | – | 27% | –
13 | GTTGACAAATAAGGTA (sugars k3 d10 k3, PS) | – | 60% | –
14 | GTTGGAGCAGCCATAG (sugars k3 d10 k3, PS) | – | 31% | –
15 | GTTGGCTGGTCTTTGT (sugars k2 d9 e3 k2, PS) | 24% | – | –
16 | GTTTATTTCCTACTCT (sugars k3 d10 k3, PS) | – | 16% | –
17 | TAAAATGTCACGCCCG (sugars k3 d10 k3, PS) | 0% | – | –
18 | TAAACTTGGCTGTGGG (sugars k3 d10 k3, PS) | – | 27% | –
19 | TAAATGAGTCGGTCAC (sugars k3 d10 k3, PS) | – | 76% and 65% | –
20 | TAACAGATAACGAGGT (sugars k3 d10 k3, PS) | 12% | – | –
21 | TAACAGGCTATCAGGA (sugars k3 d10 k3, PS) | – | 26% | –
22 | TAACCGGTAGAGTGAG (sugars k3 d10 k3, PS) | 27% | – | –
23 | TAACGGTGTTTCAGAA (sugars k3 d10 k3, PS) | – | 26% | –
24 | TAACTGGCTTCCAGGA (sugars k3 d10 k3, PS) | – | 30% | –
25 | TAAGAGGGCAGTCAAT (sugars k3 d10 k3, PS) | – | 17% | –

Row | Sequence | target mRNA inhibition (MM.1R, 1 µM) | target mRNA inhibition (SK-MEL-28, 4 µM) | further results
26 | TAAGCAAGTGGAGGTC (sugars k3 d10 k3, PS) | – | 47% | –
27 | TAAGTGATAGGTATAC (sugars k3 d10 k3, PS) | – | 60% | –
28 | TAATAATGCTTGCAAG (sugars k3 d10 k3, PS) | – | 12% | –
29 | TAATACCTACCTGCCC (sugars k3 d10 k3, PS) | – | 4% | –
30 | TAATAGTAAGTTCTAG (sugars k3 d10 k3, PS) | – | 0% | –
31 | TAATCTGTATAGTTCT (sugars k3 d10 k3, PS) | 42% | – | –
32 | TAATGTAGGGATACAG (sugars k3 d10 k3, PS) | – | 78% | –
33 | TAATTCTCCTATGCTG (sugars k3 d10 k3, PS) | 3% | – | –
34 | TACAAAACGGACTGGA (sugars k3 d10 k3, PS) | – | 38% | –
35 | TACACTTTGTACGGGT (sugars k3 d10 k3, PS) | – | 28% | –
36 | TACATCACTGCAGTTC (sugars k3 d10 k3, PS) | – | 68% | –
37 | TACCATATTGGAAACC (sugars k3 d10 k3, PS) | – | 48% | –
38 | TACCGCATTGCTAGAT (sugars k3 d10 k3, PS) | – | 23% | –
39 | TACGAGAGGGTCTGAT (sugars k3 d10 k3, PS) | – | 0% | –
40 | TACTAGATTGTAGGAC (sugars k3 d10 k3, PS) | – | 27% | –
41 | TACTGCTGTACTTTCT (sugars k3 d10 k3, PS) | – | 43% | –
42 | TACTGCTTGAGGTTTT (sugars kdddddddddkekeke, PS) | 14% | – | –
43 | TACTGCTTGAGGTTTT (sugars kkdddddddddekeke, PS) | 18% | – | –
44 | TACTGCTTGAGGTTTT (sugars kkdddddddddkekek, PS) | 22% | – | –
45 | TACTGTTACCGATGCT (sugars k2 d9 e3 k2, PS) | 29% and 8% | – | –
46 | TACTGTTACCGATGCT (sugars kddddddddddkekek, PS) | 10% and 2% | – | –
47 | TACTGTTACCGATGCT (sugars kkdddddddddkdkdk, PS) | 7% and 18% | – | –
48 | TACTTGGACAGAAGGG (sugars k3 d10 k3, PS) | – | 62% | –
49 | TAGAAAGCCCTCACCT (sugars k3 d10 k3, PS) | – | 5% | –
50 | TAGAGAACATTACGAG (sugars k3 d10 k3, PS) | – | 60% | –

Row | Sequence | target mRNA inhibition (MM.1R, 1 µM) | target mRNA inhibition (SK-MEL-28, 4 µM) | further results
51 | TAGATAACATGAGAGT (sugars k3 d10 k3, PS) | – | 50% | –
52 | TAGATTCTCCCTGCAC (sugars k3 d10 k3, PS) | 18% | – | –
53 | TAGCAGAGGTTCTACC (sugars k3 d10 k3, PS) | – | 26% | –
54 | TAGCATTATCTACCTC (sugars k3 d10 k3, PS) | – | 66% | –
55 | TAGCATTCTTACAGCA (sugars k3 d10 k3, PS) | 7% and 20% | 57% | target mRNA inhibition (MM.1R, 0.0625 µM): -4% and 15%; target mRNA inhibition (MM.1R, 0.074 µM): 0%; target mRNA inhibition (MM.1R, 0.222 µM): 34%; target mRNA inhibition (MM.1R, 0.25 µM): -7% and -4%; target mRNA inhibition (MM.1R, 0.666 µM): 27%; target mRNA inhibition (MM.1R, 2 µM): 52%; target mRNA inhibition (MM.1R, 4 µM): 26% and 40%
56 | TAGGAAGCACTGGCAT (sugars k3 d10 k3, PS) | – | 28% | –
57 | TAGGATAATATACCCC (sugars k3 d10 k3, PS) | – | 74% | –
58 | TAGGTAAGATCTCCAT (sugars k3 d10 k3, PS) | 35% and 33% | – | –
59 | TAGTAGACCACAGTGA (sugars k3 d10 k3, PS) | – | 9% | –
60 | TAGTATGAGAAACGGC (sugars k3 d9 k3 e1, PS) | 48% | – | –
61 | TAGTATGAGAAACGGC (sugars kkkdddddddddkeke, PS) | 62% | – | target mRNA inhibition (MM.1R, 0.074 µM): 8%; target mRNA inhibition (MM.1R, 0.222 µM): 29%; target mRNA inhibition (MM.1R, 0.666 µM): 50%; target mRNA inhibition (MM.1R, 2 µM): 71%
62 | TAGTCGCGCAAGTCTA (sugars k3 d10 k3, PS) | – | -8% | –
63 | TAGTTGTCTGGCTAGC (sugars k3 d10 k3, PS) | 32% and 33% | – | target mRNA inhibition (MM.1R, 0.0625 µM): 4% and 7%; target mRNA inhibition (MM.1R, 0.25 µM): 16% and 24%; target mRNA inhibition (MM.1R, 4 µM): 68%
64 | TATAACCGGTAGAGTG (sugars k3 d10 k3, PS) | – | 21% | –
65 | TATAACTTCTCCTGTG (sugars k3 d10 k3, PS) | 7% | – | –
66 | TATAATTGGCACGAGG (sugars k3 d10 k3, PS) | – | 41% | –
67 | TATCAAGACAAGGAAT (sugars k3 d10 k3, PS) | – | 7% | –
68 | TATCCATTAGAAAAGC (sugars k3 d10 k3, PS) | – | 63% | –
69 | TATGGCTAAACCTGGC (sugars k3 d10 k3, PS) | – | 43% | –
70 | TATTACTCTTAGGCAC (sugars k3 d10 k3, PS) | – | 44% | –
71 | TATTTGTTTGCAAGCT (sugars k3 d10 k3, PS) | 30% | – | –
72 | TCAAAAGGTAGTAGAC (sugars k3 d10 k3, PS) | – | 29% | –
73 | TCAATGATGGCAGTCT (sugars k3 d10 k3, PS) | – | 54% | –
74 | TCAATGGGAATCACAG (sugars k3 d10 k3, PS) | – | 40% | –
75 | TCACAGGTAAGGGCCC (sugars k3 d10 k3, PS) | – | 47% | –

Row | Sequence | target mRNA inhibition (MM.1R, 1 µM) | target mRNA inhibition (SK-MEL-28, 4 µM) | further results
76 | TCACTATTAAACAGCA (sugars k3 d10 k3, PS) | – | 16% | –
77 | TCACTTGCCGCCGCCT (sugars k3 d10 k3, PS) | – | 49% | –
78 | TCAGATACACACCCTC (sugars k3 d10 k3, PS) | – | 37% | –
79 | TCAGTTGTAAATGAGT (sugars k3 d10 k3, PS) | – | 72% | –
80 | TCAGTTTGTGAAGCAT (sugars kkddddddddddkeke, PS) | 33% | – | –
81 | TCAGTTTGTGAAGCAT (sugars kkkdddddddddkeke, PS) | 53% | – | –
82 | TCATATGGCTAAACCT (sugars k3 d10 k3, PS) | – | 49% | –
83 | TCATCCGAAAAGACTG (sugars k3 d10 k3, PS) | 16% | – | –
84 | TCATTAGAAAGCCCTC (sugars k3 d10 k3, PS) | -19% | – | –
85 | TCCAACAGGCGGACAC (sugars k3 d10 k3, PS) | – | 29% | –
86 | TCCAACCCTAGATAAC (sugars k3 d10 k3, PS) | -5% | – | –
87 | TCCACTTCTGAATTCC (sugars k3 d10 k3, PS) | – | 19% | –
88 | TCCACTTTATCAAGAC (sugars k3 d10 k3, PS) | – | 65% | –
89 | TCCATATGACCCAGTG (sugars k3 d10 k3, PS) | – | 66% | –
90 | TCCCAAGATCGAGCGG (sugars k3 d10 k3, PS) | – | 16% | –
91 | TCCCAGAGTTGTTCCA (sugars k3 d10 k3, PS) | – | 26% | –
92 | TCCGAAAAGACTGGAG (sugars k3 d10 k3, PS) | -7% | – | –
93 | TCCGGGTGTGGCTGAT (sugars k3 d10 k3, PS) | 26% | – | –
94 | TCCTAAATCACCCTGG (sugars k3 d10 k3, PS) | – | 21% | –
95 | TCCTCCTCGCGGTTGT (sugars k3 d10 k3, PS) | – | 59% | –
96 | TCCTGAATTTACAGCA (sugars k3 d10 k3, PS) | – | 48% | –
97 | TCGCAGGAGCGCGGAG (sugars k3 d10 k3, PS) | – | -37% | –
98 | TCGGAGCGACCCAAAT (sugars k3 d10 k3, PS) | 12% | – | –
99 | TCTAATGGTGCTCCTA (sugars k3 d10 k3, PS) | – | 51% | –
100 | TCTATAGTGTTCCAGG (sugars e1 k2 d9 k2 e2, PS) | 58% | – | target mRNA inhibition (MM.1R, 0.074 µM): 22%; target mRNA inhibition (MM.1R, 0.222 µM): 33%; target mRNA inhibition (MM.1R, 0.666 µM): 52%; target mRNA inhibition (MM.1R, 2 µM): 74%
